Assay results taken from the kinase profiling compilation of Christmann-Franck et al. (2016).

Key:
Test in all cases: KINOMEscan competition binding
Settings in all cases: compound 10.0 µM
[1] = tested on: KIT (human), P10721 [V559D/T670I]
[2] = tested on: EGFR (human), P00533 [G719S]
[3] = tested on: EGFR (human), P00533 [P753S; 747-752 del]
PLK2 (human) = PLK2 (human) (UniProt Q9NYY3)
HUNK (human) = HUNK (human) (UniProt P57058)
[4] = tested on: PIK3CA (human), P42336 [E545K]
MET (human) = MET (human) (UniProt P08581)
EPHB6 (human) = EPHB6 (human) (UniProt O15197)
VRK2 (human) = VRK2 (human) (UniProt Q86Y07)
ERN1 (human) = ERN1 (human) (UniProt O75460)
PIP4K2C (human) = PIP4K2C (human) (UniProt Q8TBX8)
Chain of PIP4K2C (human) (Q8TBX8 whole entry, looked up): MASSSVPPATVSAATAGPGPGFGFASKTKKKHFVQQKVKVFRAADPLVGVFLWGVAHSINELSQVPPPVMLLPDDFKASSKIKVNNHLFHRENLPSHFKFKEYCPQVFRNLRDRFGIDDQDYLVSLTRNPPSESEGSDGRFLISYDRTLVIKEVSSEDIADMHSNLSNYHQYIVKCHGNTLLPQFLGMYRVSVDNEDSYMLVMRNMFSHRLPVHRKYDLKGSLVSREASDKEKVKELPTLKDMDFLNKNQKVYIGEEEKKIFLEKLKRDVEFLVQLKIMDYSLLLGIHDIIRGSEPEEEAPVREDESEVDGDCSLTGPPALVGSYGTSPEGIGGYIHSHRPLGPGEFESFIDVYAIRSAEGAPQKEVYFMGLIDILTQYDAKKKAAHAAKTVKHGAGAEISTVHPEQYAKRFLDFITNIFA

STK32A (human) = STK32A (human) (UniProt Q8WU08)
Chain of STK32A (human) (Q8WU08 whole entry, looked up): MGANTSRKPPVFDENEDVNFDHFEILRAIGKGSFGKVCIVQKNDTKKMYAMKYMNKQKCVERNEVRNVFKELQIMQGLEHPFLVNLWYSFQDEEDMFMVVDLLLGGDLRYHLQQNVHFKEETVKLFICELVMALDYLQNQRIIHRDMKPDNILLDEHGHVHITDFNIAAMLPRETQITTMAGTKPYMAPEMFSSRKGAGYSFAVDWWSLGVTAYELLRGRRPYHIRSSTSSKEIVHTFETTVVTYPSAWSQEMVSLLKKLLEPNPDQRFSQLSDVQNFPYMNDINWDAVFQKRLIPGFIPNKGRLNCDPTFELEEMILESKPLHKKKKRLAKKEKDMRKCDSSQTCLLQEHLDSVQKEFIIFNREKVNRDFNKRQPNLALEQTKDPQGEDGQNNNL

CDKL3 (human) = CDKL3 (human) (UniProt Q8IVW4)
HIPK4 (human) = HIPK4 (human) (UniProt Q8NE63)
[5] = tested on: ABL1 (human), P00519 [E255K]
ROCK1 (human) = ROCK1 (human) (UniProt Q13464)
CDK4 CCND1 (human) = CDK4 CCND1 (human) (UniProt P11802+P24385)
NEK3 (human) = NEK3 (human) (UniProt P51956)
Chain of NEK3 (human) (P51956 whole entry, looked up): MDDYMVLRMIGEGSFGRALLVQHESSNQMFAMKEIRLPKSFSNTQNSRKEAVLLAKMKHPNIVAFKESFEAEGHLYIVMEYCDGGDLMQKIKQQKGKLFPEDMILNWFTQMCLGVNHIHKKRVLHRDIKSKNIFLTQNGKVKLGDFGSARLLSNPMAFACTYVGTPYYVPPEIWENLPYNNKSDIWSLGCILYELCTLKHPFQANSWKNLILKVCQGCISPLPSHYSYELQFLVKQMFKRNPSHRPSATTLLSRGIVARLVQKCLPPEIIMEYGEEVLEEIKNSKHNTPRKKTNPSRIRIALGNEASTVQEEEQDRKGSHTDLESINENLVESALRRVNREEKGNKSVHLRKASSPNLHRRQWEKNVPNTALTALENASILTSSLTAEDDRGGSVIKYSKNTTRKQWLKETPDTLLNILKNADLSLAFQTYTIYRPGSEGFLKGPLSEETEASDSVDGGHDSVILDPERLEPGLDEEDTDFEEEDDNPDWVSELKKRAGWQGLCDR

CSNK1A1 (human) = CSNK1A1 (human) (UniProt P48729)
Chain of CSNK1A1 (human) (P48729 whole entry, looked up): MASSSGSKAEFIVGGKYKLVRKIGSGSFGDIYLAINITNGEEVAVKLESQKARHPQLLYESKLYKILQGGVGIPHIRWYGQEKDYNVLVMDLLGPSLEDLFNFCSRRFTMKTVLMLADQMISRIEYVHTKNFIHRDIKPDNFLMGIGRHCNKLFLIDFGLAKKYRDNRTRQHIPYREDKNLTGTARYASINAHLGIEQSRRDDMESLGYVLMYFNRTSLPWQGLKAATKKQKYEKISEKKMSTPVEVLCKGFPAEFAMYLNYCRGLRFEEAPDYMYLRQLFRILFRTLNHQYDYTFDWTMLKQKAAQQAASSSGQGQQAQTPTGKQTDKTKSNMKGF

PIK3CG (human) = PIK3CG (human) (UniProt P48736)
MAK (human) = MAK (human) (UniProt P20794)
Chain of MAK (human) (P20794 whole entry, looked up): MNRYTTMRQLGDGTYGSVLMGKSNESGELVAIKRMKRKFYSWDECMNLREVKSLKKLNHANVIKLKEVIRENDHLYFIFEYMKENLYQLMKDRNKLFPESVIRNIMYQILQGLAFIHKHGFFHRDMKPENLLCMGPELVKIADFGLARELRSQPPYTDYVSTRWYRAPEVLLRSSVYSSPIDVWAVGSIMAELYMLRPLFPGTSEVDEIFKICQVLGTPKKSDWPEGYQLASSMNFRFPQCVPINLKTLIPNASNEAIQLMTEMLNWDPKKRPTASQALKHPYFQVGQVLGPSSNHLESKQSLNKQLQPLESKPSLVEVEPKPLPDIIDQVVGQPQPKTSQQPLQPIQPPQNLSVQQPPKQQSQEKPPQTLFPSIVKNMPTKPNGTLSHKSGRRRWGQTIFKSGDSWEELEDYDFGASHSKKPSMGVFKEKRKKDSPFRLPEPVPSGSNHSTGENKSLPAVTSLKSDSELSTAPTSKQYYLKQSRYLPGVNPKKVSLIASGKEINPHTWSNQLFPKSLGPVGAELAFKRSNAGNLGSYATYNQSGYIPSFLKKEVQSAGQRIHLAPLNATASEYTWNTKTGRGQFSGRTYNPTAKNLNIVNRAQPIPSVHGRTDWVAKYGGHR

ERBB3 (human) = ERBB3 (human) (UniProt P21860)
Chain of ERBB3 (human) (P21860 whole entry, looked up): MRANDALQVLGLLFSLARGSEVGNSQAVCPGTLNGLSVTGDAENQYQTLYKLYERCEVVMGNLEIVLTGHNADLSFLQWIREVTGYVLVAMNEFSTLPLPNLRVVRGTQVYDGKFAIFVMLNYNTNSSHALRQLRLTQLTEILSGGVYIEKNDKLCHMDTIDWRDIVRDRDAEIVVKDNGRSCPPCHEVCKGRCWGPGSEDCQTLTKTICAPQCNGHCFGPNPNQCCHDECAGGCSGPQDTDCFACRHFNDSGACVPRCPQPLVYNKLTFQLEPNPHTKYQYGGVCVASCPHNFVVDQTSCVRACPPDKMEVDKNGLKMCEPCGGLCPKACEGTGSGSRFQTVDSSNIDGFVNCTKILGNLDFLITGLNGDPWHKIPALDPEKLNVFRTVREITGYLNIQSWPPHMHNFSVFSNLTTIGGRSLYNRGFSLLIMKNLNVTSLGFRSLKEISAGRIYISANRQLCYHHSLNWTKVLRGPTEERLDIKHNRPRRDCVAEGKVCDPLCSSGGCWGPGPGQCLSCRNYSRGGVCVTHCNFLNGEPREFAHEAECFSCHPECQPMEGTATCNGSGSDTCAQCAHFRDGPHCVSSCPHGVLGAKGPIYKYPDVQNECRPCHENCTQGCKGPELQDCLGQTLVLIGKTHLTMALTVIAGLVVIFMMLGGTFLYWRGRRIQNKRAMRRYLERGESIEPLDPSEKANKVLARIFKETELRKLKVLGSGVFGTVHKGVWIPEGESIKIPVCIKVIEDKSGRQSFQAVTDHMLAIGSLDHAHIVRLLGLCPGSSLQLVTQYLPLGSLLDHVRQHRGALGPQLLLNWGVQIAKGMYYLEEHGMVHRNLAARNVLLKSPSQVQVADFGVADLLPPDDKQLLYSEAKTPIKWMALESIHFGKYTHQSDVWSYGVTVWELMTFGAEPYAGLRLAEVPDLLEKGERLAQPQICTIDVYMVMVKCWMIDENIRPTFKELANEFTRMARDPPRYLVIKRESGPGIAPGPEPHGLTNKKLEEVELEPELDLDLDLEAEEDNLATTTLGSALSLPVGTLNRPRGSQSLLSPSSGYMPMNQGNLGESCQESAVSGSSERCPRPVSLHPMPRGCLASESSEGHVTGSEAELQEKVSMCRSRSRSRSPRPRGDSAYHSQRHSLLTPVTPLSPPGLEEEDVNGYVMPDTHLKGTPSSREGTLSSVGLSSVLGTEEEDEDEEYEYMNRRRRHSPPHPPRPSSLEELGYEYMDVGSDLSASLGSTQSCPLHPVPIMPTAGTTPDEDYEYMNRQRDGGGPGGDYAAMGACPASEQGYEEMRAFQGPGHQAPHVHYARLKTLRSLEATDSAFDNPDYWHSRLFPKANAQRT

GRK4 (human) = GRK4 (human) (UniProt P32298)
TBK1 (human) = TBK1 (human) (UniProt Q9UHD2)
GRK1 (human) = GRK1 (human) (UniProt Q15835)
MAP3K15 (human) = MAP3K15 (human) (UniProt Q6ZN16)
YSK4 (human) = YSK4 (human) (UniProt Q56UN5)
NEK4 (human) = NEK4 (human) (UniProt P51957)
MAP2K7 (human) = MAP2K7 (human) (UniProt O14733)
TRPM6 (human) = TRPM6 (human) (UniProt Q9BX84)
CDKL5 (human) = CDKL5 (human) (UniProt O76039)
MAP3K13 (human) = MAP3K13 (human) (UniProt O43283)
DYRK2 (human) = DYRK2 (human) (UniProt Q92630)
Chain of DYRK2 (human) (Q92630 whole entry, looked up): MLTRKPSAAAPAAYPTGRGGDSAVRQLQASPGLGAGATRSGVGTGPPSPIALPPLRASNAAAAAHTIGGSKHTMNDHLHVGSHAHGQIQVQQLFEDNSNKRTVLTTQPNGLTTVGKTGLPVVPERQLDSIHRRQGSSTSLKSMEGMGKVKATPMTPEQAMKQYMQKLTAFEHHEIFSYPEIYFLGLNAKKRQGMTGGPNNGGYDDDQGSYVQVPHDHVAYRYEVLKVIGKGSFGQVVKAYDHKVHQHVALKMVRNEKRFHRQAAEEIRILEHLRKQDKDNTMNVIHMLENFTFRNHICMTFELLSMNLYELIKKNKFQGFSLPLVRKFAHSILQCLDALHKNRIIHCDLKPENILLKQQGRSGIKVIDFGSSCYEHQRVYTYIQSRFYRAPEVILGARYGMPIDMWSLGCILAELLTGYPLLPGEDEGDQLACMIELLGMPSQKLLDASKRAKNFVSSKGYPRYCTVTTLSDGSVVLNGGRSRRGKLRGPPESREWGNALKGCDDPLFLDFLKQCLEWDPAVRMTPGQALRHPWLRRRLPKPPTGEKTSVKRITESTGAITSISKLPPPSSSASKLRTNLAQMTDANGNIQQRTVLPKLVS

IRAK4 (human) = IRAK4 (human) (UniProt Q9NWZ3)
CPK1 (P.falciparum) = tested on: CPK1 (P.falciparum)
MATK (human) = MATK (human) (UniProt P42679)
SNRK (human) = SNRK (human) (UniProt Q9NRH2)
Chain of SNRK (human) (Q9NRH2 whole entry, looked up): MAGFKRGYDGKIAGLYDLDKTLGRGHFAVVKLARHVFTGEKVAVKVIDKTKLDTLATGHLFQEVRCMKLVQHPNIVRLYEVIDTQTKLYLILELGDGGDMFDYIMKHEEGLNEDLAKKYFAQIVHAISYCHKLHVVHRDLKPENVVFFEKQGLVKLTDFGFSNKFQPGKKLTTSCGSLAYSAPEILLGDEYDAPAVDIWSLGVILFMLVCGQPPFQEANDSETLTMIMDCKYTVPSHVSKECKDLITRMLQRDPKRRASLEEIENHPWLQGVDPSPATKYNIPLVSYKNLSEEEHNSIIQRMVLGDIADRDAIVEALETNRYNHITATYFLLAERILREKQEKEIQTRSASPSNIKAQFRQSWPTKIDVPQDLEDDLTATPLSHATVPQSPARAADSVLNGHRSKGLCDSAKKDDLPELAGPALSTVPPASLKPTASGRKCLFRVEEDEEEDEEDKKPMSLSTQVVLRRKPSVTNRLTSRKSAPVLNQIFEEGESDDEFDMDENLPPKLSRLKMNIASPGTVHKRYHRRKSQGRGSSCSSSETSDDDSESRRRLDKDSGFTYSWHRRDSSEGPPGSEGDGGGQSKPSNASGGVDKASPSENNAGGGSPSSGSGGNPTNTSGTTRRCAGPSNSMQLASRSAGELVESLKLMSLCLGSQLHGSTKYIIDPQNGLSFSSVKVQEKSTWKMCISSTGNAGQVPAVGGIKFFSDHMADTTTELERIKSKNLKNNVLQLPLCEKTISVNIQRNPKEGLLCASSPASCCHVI

TIE1 (human) = TIE1 (human) (UniProt P35590)
[6] = tested on: PIK3CA (human), P42336 [C420R]
PKN3 (M.tuberculosis) = PKN3 (M.tuberculosis) (UniProt Q6P5Z2)

Row | Compound | kinase still bound, per cent of control [1] | kinase still bound, per cent of control [2] | kinase still bound, per cent of control [3] | kinase still bound, per cent of control (PLK2 (human)) | kinase still bound, per cent of control (HUNK (human)) | kinase still bound, per cent of control [4] | kinase still bound, per cent of control (MET (human)) | kinase still bound, per cent of control (EPHB6 (human)) | kinase still bound, per cent of control (VRK2 (human)) | kinase still bound, per cent of control (ERN1 (human)) | kinase still bound, per cent of control (PIP4K2C (human)) | kinase still bound, per cent of control (STK32A (human)) | kinase still bound, per cent of control (CDKL3 (human)) | kinase still bound, per cent of control (HIPK4 (human)) | kinase still bound, per cent of control [5] | kinase still bound, per cent of control (ROCK1 (human)) | kinase still bound, per cent of control (CDK4 CCND1 (human)) | kinase still bound, per cent of control (NEK3 (human)) | kinase still bound, per cent of control (CSNK1A1 (human)) | kinase still bound, per cent of control (PIK3CG (human)) | other results
1 | C=CC(=O)Nc1cc(NC(=O)c2ccc(C)c(NC(=O)c3ccno3)c2)cc(C(F)(F)F)c1 | 77% | 100% | 79% | 100% | 100% | 95% | 100% | 81% | 100% | 90% | 90% | 100% | 90% | 100% | 86% | 100% | 100% | 88% | 100% | 76% | kinase still bound, per cent of control (MAK (human)): 84%; kinase still bound, per cent of control (ERBB3 (human)): 100%; kinase still bound, per cent of control (GRK4 (human)): 100%; kinase still bound, per cent of control (TBK1 (human)): 100%; kinase still bound, per cent of control (GRK1 (human)): 86%; kinase still bound, per cent of control (MAP3K15 (human)): 77%; kinase still bound, per cent of control (YSK4 (human)): 74%; kinase still bound, per cent of control (NEK4 (human)): 84%; kinase still bound, per cent of control (MAP2K7 (human)): 100%; kinase still bound, per cent of control (TRPM6 (human)): 100%; kinase still bound, per cent of control (CDKL5 (human)): 100%; kinase still bound, per cent of control (MAP3K13 (human)): 98%; kinase still bound, per cent of control (DYRK2 (human)): 78%; kinase still bound, per cent of control (IRAK4 (human)): 99%; kinase still bound, per cent of control (CPK1 (P.falciparum)): 94%; kinase still bound, per cent of control (MATK (human)): 100%; kinase still bound, per cent of control (SNRK (human)): 100%; kinase still bound, per cent of control (TIE1 (human)): 100%; kinase still bound, per cent of control [6]: 82%; kinase still bound, per cent of control (PKN3 (M.tuberculosis)): 75%
2 | C=CC(=O)Nc1cccc(Nc2nc(N[C@H]3CC[C@H](N(C)C)CC3)nc3c2ncn3C(C)C)c1 | 86% | 98% | 90% | 52% | 85% | 100% | 100% | 74% | 11% | 96% | 66% | 89% | 100% | 63% | 70% | 16% | 40% | 60% | 0.65% | 100% | kinase still bound, per cent of control (MAK (human)): 100%; kinase still bound, per cent of control (ERBB3 (human)): 94%; kinase still bound, per cent of control (GRK4 (human)): 43%; kinase still bound, per cent of control (TBK1 (human)): 84%; kinase still bound, per cent of control (GRK1 (human)): 47%; kinase still bound, per cent of control (MAP3K15 (human)): 66%; kinase still bound, per cent of control (YSK4 (human)): 15%; kinase still bound, per cent of control (NEK4 (human)): 100%; kinase still bound, per cent of control (MAP2K7 (human)): 100%; kinase still bound, per cent of control (TRPM6 (human)): 66%; kinase still bound, per cent of control (CDKL5 (human)): 100%; kinase still bound, per cent of control (MAP3K13 (human)): 79%; kinase still bound, per cent of control (DYRK2 (human)): 58%; kinase still bound, per cent of control (IRAK4 (human)): 2.5%; kinase still bound, per cent of control (CPK1 (P.falciparum)): 98%; kinase still bound, per cent of control (MATK (human)): 40%; kinase still bound, per cent of control (SNRK (human)): 68%; kinase still bound, per cent of control (TIE1 (human)): 86%; kinase still bound, per cent of control [6]: 89%; kinase still bound, per cent of control (PKN3 (M.tuberculosis)): 82%
3 | O=C(NC1CC1)c1cccc(-c2ccc3c(NC(=O)C4CC4)n[nH]c3c2)c1 | 43% | 85% | 96% | 88% | 64% | 95% | 75% | 1.4% | 100% | 100% | 95% | 78% | 55% | 40% | 55% | 57% | 94% | 75% | 100% | 90% | kinase still bound, per cent of control (MAK (human)): 51%; kinase still bound, per cent of control (ERBB3 (human)): 69%; kinase still bound, per cent of control (GRK4 (human)): 14%; kinase still bound, per cent of control (TBK1 (human)): 61%; kinase still bound, per cent of control (GRK1 (human)): 100%; kinase still bound, per cent of control (MAP3K15 (human)): 100%; kinase still bound, per cent of control (YSK4 (human)): 5.9%; kinase still bound, per cent of control (NEK4 (human)): 100%; kinase still bound, per cent of control (MAP2K7 (human)): 100%; kinase still bound, per cent of control (TRPM6 (human)): 100%; kinase still bound, per cent of control (CDKL5 (human)): 42%; kinase still bound, per cent of control (MAP3K13 (human)): 64%; kinase still bound, per cent of control (DYRK2 (human)): 36%; kinase still bound, per cent of control (IRAK4 (human)): 88%; kinase still bound, per cent of control (CPK1 (P.falciparum)): 18%; kinase still bound, per cent of control (MATK (human)): 68%; kinase still bound, per cent of control (SNRK (human)): 100%; kinase still bound, per cent of control (TIE1 (human)): 31%; kinase still bound, per cent of control [6]: 100%; kinase still bound, per cent of control (PKN3 (M.tuberculosis)): 15%
